{"source": "patent US10045983B2", "about": "“Heteroaryl pyridone and aza-pyrodine compounds” (Genentech, Inc., priority 2011, dated 2018)", "assay": "CD69 Whole Blood Assay (CD69 Hu Blood FACS)", "format": "cell-based, human", "details": "Lymphocyte; human whole blood, anti-IgM activated B lymphocytes, FACS; IC70; Table 1; read-out: CD69 Hu Blood FACS IC70", "procedure,_shortened": "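Compounds tested for blocking B-cell CD69 induction by flow cytometry in human whole blood, with activation via anti-human IgM goat F(ab′)2 crosslinking of surface IgM.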"}
{"smiles": "Cn1cc(-c2ccnc(N3CCn4c(cc5c4CCCC5)C3=O)c2CO)cc(Nc2cnccn2)c1=O", "note": "[Example 162, 2-[3′-Hydroxymethyl-1-methyl-6-oxo-5-(pyrazin-2-ylamino)-1,6-dihydro-[3,4′]bipyridinyl-2′-yl]-3,4,6,7,8,9-hexahydro-2H-pyrazino[1,2-a]indol-1-one]", "values": [{"measurement": "IC70", "value": 434, "unit": "nM"}]}
{"smiles": "Cn1cc(-c2ccnc(N3CCn4c(cc5c4CC(C)(C)C5)C3=O)c2CO)cc(Nc2cc3n(n2)CCN(C2COC2)C3)c1=O", "note": "[Example 163, 2-[3′-Hydroxymethyl-1-methyl-5-(5-oxetan-3-yl-4,5,6,7-tetrahydro-pyrazolo[1,5-a]pyrazin-2-ylamino)-6-oxo-1,6-dihydro-[3,4′]bipyridinyl-2′-yl]-7,7-dimethyl-3,4,7,8-tetrahydro-2H,6H-cyclopenta[4,5]pyrrolo[1,2-a]pyrazin-1-one]", "values": [{"measurement": "IC70", "value": 22.8, "unit": "nM"}]}
{"smiles": "CC[C@H]1CN(C2COC2)CCN1c1ccc(Nc2cc(-c3ccnc(N4CCn5c(cc6c5CC(C)(C)C6)C4=O)c3CO)cn(C)c2=O)nc1", "note": "[Example 164, 2-{5-[5-((S)-2-Ethyl-4-oxetan-3-yl-piperazin-1-yl)-pyridin-2-ylamino]-3′-hydroxymethyl-1-methyl-6-oxo-1,6-dihydro-[3,4′]bipyridinyl-2′-yl}-7,7-dimethyl-3,4,7,8-tetrahydro-2H,6H-cyclopenta[4,5]pyrrolo[1,2-a]pyrazin-1-one]", "values": [{"measurement": "IC70", "value": 29, "unit": "nM"}]}
{"smiles": "CC[C@H]1CN(C2COC2)CCN1c1ccc(Nc2cc(-c3ccnc(-n4ccn5c6c(cc5c4=O)CCCC6)c3CO)cn(C)c2=O)nc1", "note": "[Example 165, 2-{5-[5-((S)-2-Ethyl-4-oxetan-3-yl-piperazin-1-yl)-pyridin-2-ylamino]-3′-hydroxymethyl-1-methyl-6-oxo-1,6-dihydro-[3,4′]bipyridinyl-2′-yl}-6,7,8,9-tetrahydro-2H-pyrazino[1,2-a]indol-1-one]", "values": [{"measurement": "IC70", "value": 41.7, "unit": "nM"}]}
{"smiles": "Cn1cc(-c2ccnc(N3CCn4c5c(c(F)c4C3=O)CCCC5)c2CO)cc(Nc2cc3n(n2)CCN(C2COC2)C3)c1=O", "note": "[Example 166, 10-Fluoro-2-[3′-hydroxymethyl-1-methyl-5-(5-oxetan-3-yl-4,5,6,7-tetrahydro-pyrazolo[1,5-a]pyrazin-2-ylamino)-6-oxo-1,6-dihydro-[3,4′]bipyridinyl-2′-yl]-3,4,6,7,8,9-hexahydro-2H-pyrazino[1,2-a]indol-1-one]", "values": [{"measurement": "IC70", "value": 155, "unit": "nM"}]}
{"smiles": "Cn1cc(-c2ccnc(N3CCn4c(cc5c4CC(C)(C)C5)C3=O)c2CO)cc(Nc2cc3n(n2)CCOC3)c1=O", "note": "[Example 168, 2-[5-(6,7-Dihydro-4H-pyrazolo[5,1-c][1,4]oxazin-2-ylamino)-3′-hydroxymethyl-1-methyl-6-oxo-1,6-dihydro-[3,4′]bipyridinyl-2′-yl]-7,7-dimethyl-3,4,7,8-tetrahydro-2H,6H-cyclopenta[4,5]pyrrolo[1,2-a]pyrazin-1-one]", "values": [{"measurement": "IC70", "value": 63.5, "unit": "nM"}]}
{"smiles": "Cn1cc(-c2ccnc(N3CCc4c(sc5c4CCCC5)C3=O)c2CO)cc(Nc2ccc(N3CCN(C4COC4)CC3)cn2)c1=O", "note": "[Example 169, 2-{3′-Hydroxymethyl-1-methyl-5-[5-(4-oxetan-3-yl-piperazin-1-yl)-pyridin-2-ylamino]-6-oxo-1,6-dihydro-[3,4′]bipyridinyl-2′-yl}-3,4,5,6,7,8-hexahydro-2H-benzo[4,5]thieno[2,3-c]pyridin-1-one]", "values": [{"measurement": "IC70", "value": 206, "unit": "nM"}]}
{"smiles": "C[C@H]1CN(C2COC2)CCN1c1ccc(Nc2cc(-c3ccnc(N4CCn5c(cc6c5[C@H]5CC[C@@H]6C5)C4=O)c3CO)cn(C)c2=O)nc1", "note": "[Example 171, (S)-2-(3-(hydroxymethyl)-4-(1-methyl-5-(5-(2-methyl-4-(oxetan-3-yl)piperazin-1-yl)pyridin-2-ylamino)-6-oxo-1,6-dihydropyridin-3-yl)pyridin-2-yl)-3,4,6,7,8,9-hexahydro-6,9-methanopyrazino[1,2-a]indol-1(2H)-one]", "values": [{"measurement": "IC70", "value": 36, "unit": "nM"}]}
{"smiles": "Cn1cc(-c2ccnc(N3CCn4c(cc5c4CCCC5)C3=O)c2CO)cc(Nc2nccnn2)c1=O", "note": "[Example 172, 2-(4-(5-(1,2,4-triazin-3-ylamino)-1-methyl-6-oxo-1,6-dihydropyridin-3-yl)-3-(hydroxymethyl)pyridin-2-yl)-3,4,6,7,8,9-hexahydropyrazino[1,2-a]indol-1(2H)-one]", "values": [{"measurement": "IC70", "value": 5000, "unit": "nM"}]}
{"smiles": "Cc1cc(Nc2cc(-c3ccnc(N4CCn5c(cc6c5CC(C)(C)C6)C4=O)c3CO)cn(C)c2=O)nc(C)n1", "note": "[Example 173, 2-[5-(2,6-Dimethyl-pyrimidin-4-ylamino)-3′-hydroxymethyl-1-methyl-6-oxo-1,6-dihydro-[3,4′]bipyridinyl-2′-yl]-7,7-dimethyl-3,4,7,8-tetrahydro-2H,6H-cyclopenta[4,5]pyrrolo[1,2-a]pyrazin-1-one]", "values": [{"measurement": "IC70", "value": 1000, "unit": "nM"}]}
{"smiles": "C[C@H]1CN(C2COC2)CCN1c1ccc(Nc2cc(-c3ccnc(N4CCn5c(cc6c5[C@@H]5CC[C@H]6C5)C4=O)c3CO)cn(C)c2=O)nc1", "note": "[Example 174, (1R,11S)-6-[3-(Hydroxymethyl)-4-[1-methyl-5-({5-[(2S)-2-methyl-4-(oxetan-3-yl)piperazin-1-yl]pyridin-2-yl}amino)-6-oxo-1,6-dihydropyridin-3-yl]pyridin-2-yl]-3,6-diazatetracyclo[9.2.1.0^2,10.0^3,8]tetradeca-2(10),8-dien-7-one]", "values": [{"measurement": "IC70", "value": 101, "unit": "nM"}]}
{"smiles": "CC[C@H]1CN(C2COC2)CCN1c1ccc(Nc2cc(-c3ccnc(-n4ncc5c6c(sc5c4=O)CCCC6)c3CO)cn(C)c2=O)nc1", "note": "[Example 175, 3-{5-[5-((S)-2-Ethyl-4-oxetan-3-yl-piperazin-1-yl)-pyridin-2-ylamino]-3′-hydroxymethyl-1-methyl-6-oxo-1,6-dihydro-[3,4′]bipyridinyl-2′-yl}-6,7,8,9-tetrahydro-3H-benzo[4,5]thieno[2,3-d]pyridazin-4-one]", "values": [{"measurement": "IC70", "value": 46.6, "unit": "nM"}]}
{"smiles": "C[C@H]1CN(C2COC2)CCN1c1ccc(Nc2cc(-c3ccnc(-n4ccn5c6c(cc5c4=O)CCCC6)c3CO)cn(C)c2=O)nc1", "note": "[Example 176, (S)-2-(3-(hydroxymethyl)-4-(1-methyl-5-(5-(2-methyl-4-(oxetan-3-yl)piperazin-1-yl)pyridin-2-ylamino)-6-oxo-1,6-dihydropyridin-3-yl)pyridin-2-yl)-6,7,8,9-tetrahydropyrazino[1,2-a]indol-1(2H)-one]", "values": [{"measurement": "IC70", "value": 37.5, "unit": "nM"}]}
{"smiles": "CCN1CCn2nc(Nc3cc(-c4ccnc(N5CCn6c(cc7c6CCCC7)C5=O)c4CO)cn(C)c3=O)cc2C1", "note": "[Example 177, 2-(4-(5-(5-ethyl-4,5,6,7-tetrahydropyrazolo[1,5-a]pyrazin-2-ylamino)-1-methyl-6-oxo-1,6-dihydropyridin-3-yl)-3-(hydroxymethyl)pyridin-2-yl)-3,4,6,7,8,9-hexahydropyrazino[1,2-a]indol-1(2H)-one]", "values": [{"measurement": "IC70", "value": 107, "unit": "nM"}]}
{"smiles": "Cn1cc(-c2ccnc(-n3ncc4c5c(sc4c3=O)CCCC5)c2CO)cc(Nc2ccccn2)c1=O", "note": "[Example 178, 3-[3′-Hydroxymethyl-1-methyl-6-oxo-5-(pyridin-2-ylamino)-1,6-dihydro-[3,4′]bipyridinyl-2′-yl]-6,7,8,9-tetrahydro-3H-benzo[4,5]thieno[2,3-d]pyridazin-4-one]", "values": [{"measurement": "IC70", "value": 1100, "unit": "nM"}]}
{"smiles": "Cc1nccc(Nc2cc(-c3ccnc(N4CCn5c(cc6c5CC(C)(C)C6)C4=O)c3CO)cn(C)c2=O)n1", "note": "[Example 179, 2-[3′-Hydroxymethyl-1-methyl-5-(2-methyl-pyrimidin-4-ylamino)-6-oxo-1,6-dihydro-[3,4′]bipyridinyl-2′-yl]-7,7-dimethyl-3,4,7,8-tetrahydro-2H,6H-cyclopenta[4,5]pyrrolo[1,2-a]pyrazin-1-one]", "values": [{"measurement": "IC70", "value": 209, "unit": "nM"}]}
{"smiles": "Cc1cc(Nc2cc(-c3ccnc(N4CCn5c(cc6c5CC(C)(C)C6)C4=O)c3CO)cn(C)c2=O)ncn1", "note": "[Example 180, 2-[3′-Hydroxymethyl-1-methyl-5-(6-methyl-pyrimidin-4-ylamino)-6-oxo-1,6-dihydro-[3,4′]bipyridinyl-2′-yl]-7,7-dimethyl-3,4,7,8-tetrahydro-2H,6H-cyclopenta[4,5]pyrrolo[1,2-a]pyrazin-1-one]", "values": [{"measurement": "IC70", "value": 245, "unit": "nM"}]}
{"smiles": "CN1CCn2nc(Nc3cc(-c4ccnc(-n5ncc6c7c(sc6c5=O)CCCC7)c4CO)cn(C)c3=O)cc2C1", "note": "[Example 181, 3-[3′-Hydroxymethyl-1-methyl-5-(5-methyl-4,5,6,7-tetrahydro-pyrazolo[1,5-a]pyrazin-2-ylamino)-6-oxo-1,6-dihydro-[3,4′]bipyridinyl-2′-yl]-6,7,8,9-tetrahydro-3H-benzo[4,5]thieno[2,3-d]pyridazin-4-one]", "values": [{"measurement": "IC70", "value": 144, "unit": "nM"}]}
{"smiles": "Cn1cc(-c2ccnc(-n3ncc4c5c(sc4c3=O)CCCC5)c2CO)cc(Nc2ccncn2)c1=O", "note": "[Example 182, 3-[3′-Hydroxymethyl-1-methyl-6-oxo-5-(pyrimidin-4-ylamino)-1,6-dihydro-[3,4′]bipyridinyl-2′-yl]-6,7,8,9-tetrahydro-3H-benzo[4,5]thieno[2,3-d]pyridazin-4-one]", "values": [{"measurement": "IC70", "value": 813, "unit": "nM"}]}
{"smiles": "Cn1cc(-c2ccnc(N3CCn4c5c(c(F)c4C3=O)CCCC5)c2CO)cc(Nc2ccccn2)c1=O", "note": "[Example 183, 10-fluoro-2-(3-(hydroxymethyl)-4-(1-methyl-6-oxo-5-(pyridin-2-ylamino)-1,6-dihydropyridin-3-yl)pyridin-2-yl)-3,4,6,7,8,9-hexahydropyrazino[1,2-a]indol-1(2H)-one]", "values": [{"measurement": "IC70", "value": 906, "unit": "nM"}]}
{"smiles": "Cn1cc(-c2ccnc(N3CCc4c(sc5c4CC(C)(C)C5)C3=O)c2CO)cc(Nc2cnccn2)c1=O", "note": "[Example 184, 6-[3′-Hydroxymethyl-1-methyl-6-oxo-5-(pyrazin-2-ylamino)-1,6-dihydro-[3,4′]bipyridinyl-2′-yl]-2,2-dimethyl-2,3,5,6-tetrahydro-1H,4H-8-thia-6-aza-cyclopenta[a]inden-7-one]", "values": [{"measurement": "IC70", "value": 601, "unit": "nM"}]}
{"smiles": "Cn1cc(-c2ccnc(N3CCn4c(cc5c4CC(C)(C)C5)C3=O)c2CO)nc(Nc2ccn3ccnc3c2)c1=O", "note": "[Example 185, 2-{3-Hydroxymethyl-4-[6-(imidazo[1,2-a]pyridin-7-ylamino)-4-methyl-5-oxo-4,5-dihydro-pyrazin-2-yl]-pyridin-2-yl}-7,7-dimethyl-3,4,7,8-tetrahydro-2H,6H-cyclopenta[4,5]pyrrolo[1,2-a]pyrazin-1-one]", "values": [{"measurement": "IC70", "value": 1300, "unit": "nM"}]}
{"smiles": "Cn1cc(-c2ccnc(N3CCn4c5c(c(F)c4C3=O)CCCC5)c2CO)nc(Nc2cccnc2)c1=O", "note": "[Example 186, 10-fluoro-2-(3-(hydroxymethyl)-4-(4-methyl-5-oxo-6-(pyridin-3-ylamino)-4,5-dihydropyrazin-2-yl)pyridin-2-yl)-3,4,6,7,8,9-hexahydropyrazino[1,2-a]indol-1(2H)-one]", "values": [{"measurement": "IC70", "value": 1600, "unit": "nM"}]}
